Test [1] concerns diarrhea induced in rats by prostaglandin E2. As to the kind of experiment: inhibition of the diarrhea induced in rats by intraperitoneal prostaglandin E2. The class given is in vivo. The following applies: 10 mg/Kg p.o. in the rat. As for the experimental part: The antidiarrheal effect of the compounds of the invention is determined by measuring the inhibition of the diarrhea induced in rats by the intraperitoneal administration of prostaglandin E2.
The test is carried out as follows:
Female Sprague-Dawley rats weighing 200-250 g and fasted for 18 hours are employed. The test compounds are dissolved in dimethylsulfoxide diluted with water to a 30-50% dimethyl sulfoxide concentration and administered orally by gastric lavage in a volume of 1 ml/Kg. Thirty or sixty minutes later, prostaglandin E2 (150 μg) is administered i.p. in a volume of 0.5 ml of water. The decrease in fecal excretion compared to untreated animals is measured for a period of 30 minutes after administration of prostaglandin E2.

The test system of test [2] is rat stomach parietal cells. As to the kind of experiment: inhibition of acid secretion in rat stomach parietal cells (14C-aminopyrine accumulation). The following applies: histamine (1 mM) and isobutyl methylxanthine (0.1 mM). The class given is cell-based. As for the experimental part: Inhibition of acid secretion, indicative of antiulcer activity, can be determined in vitro in rat stomach parietal cells as follows:
Approximately 1×10^6 parietal cells (18-22% enriched) are incubated in a balanced salt solution containing glucose, BSA (bovine serum albumin), 0.1 uCi of ^14 C-aminopyrine, histamine (1 mM), isobutyl methylxanthine (0.1 mM) and the compound to be tested under 95% oxygen at 37° C. for a period of 40 minutes. The cells are then washed, ruptured with distilled water and analyzed by scintillation spectrometry. A decrease in the accumulation of ^14 C-aminopyrine in the cells represents an indirect measure of the inhibition of acid secretion.

In a further test the target is calmodulin (Bos taurus, UniProt P62157). As to the kind of experiment: inhibition of the calmodulin induced activation of bovine c-AMP phosphodiesterase. The class given is biochemical. The following applies: in vitro; read-out: concentration inhibiting calmodulin-induced activation of phosphodiesterase by 50%. The protocol:
The calmodulin inhibitory properties indicative of the antisecretory activity of said new compounds are determined in vitro by measuring the inhibition of the calmodulin induced activation of bovine c-AMP phosphodiesterase, according to the method described by J. A. Norman et al, Mol. Pharmacology 16, 1089 (1979).

`CC1(CN2CCC(n3c(=O)[nH]c4ccccc43)CC2)OCc2ccccc2-n2cccc21` (stereo not drawn) [Example 1, 1,3-Dihydro-1-{1-[(4-methyl-4H,6H,-pyrrolo[1,2-a][4,1]-benzoxazepin-4-yl)-methyl]-4-piperidinyl}-2H-benzimidazol-2-one (1:1)maleate]: the “prostaglandin E2 induced fecal excretion” value in test [1] is recorded as “reduces prostaglandin E2 induced fecal excretion”. Further, the values for the IC50 (in test [2]; on calmodulin) were approximately 0.3 µM and approximately 3 µM, respectively.

(Values after patent US4758559A, “Pyrrolo[1,2-a] [4,1]benzoxazepine derivatives useful as calmodulin and histamine inhibitors” (Ciba-Geigy Corporation, priority 1986, dated 1988).)
